Tests used:
[1] = Release of letrozole from drug-loaded 2,2′-BPBPA-Ca in FaSSGF; assay type: physicochemical; conditions: 37° C., 150 rpm, duplicate
Protocol: LET release curve from 2,2′-BPBPA-Ca. The release curve of LET from 2,2′-BPBPA-Ca was assessed in FaSSGF. A calibration curve for LET in FaSSGF was previously prepared; the lambda max (λmax) was detected at 238 nm (Supporting Information). About 100 mL of FaSSGF were placed in a 250-mL beaker and left in constant stirring at 37° C. (150 rpm).
(§1) Subsequently, […] of powdered drug-loaded 2,2′-BPBPA-Ca (experimental) were placed into the FaSSGF solution. After each time point (0, 1, 3, 6, 24, 48, and 72 h), an aliquot (1 mL) was taken out and diluted in a 5 mL volumetric flask. An aliquot was taken out before adding the drug-loaded material to record the first time point (0 h). Then, the absorbance was measured at 238 nm to determine the amount (%) of LET release from the 2,2′-BPBPA-Ca.
TGA thermographs for these drug-loaded materials were collected to determine the amount of LET loaded into the channels of 2,2′-BPBPA and nano-Ca@2,2′-BPBPA (20-21%, FIG. 8B). Furthermore, the release capacity of these drug-loaded BPCCs was assessed in physiological conditions (FaSSGF, pH=1.60) at 37° C. The LET release from 2,2′-BPBPA-Ca was determined by measuring the absorption of the supernatant at the lambda max (λmax=[…]) and quantifying the increase in the LET concentration over time.
as §1, with “Release experiment. […] About 100 mL of FaSSGF were placed in a 250-mL beaker and left in constant stirring at 37° C. (150 rpm). Subsequently,” for “Subsequently,”, “2,2′-BPBPA-Ca. The release curve of LET (control) in FaSSGF was used for comparison.” for “2,2′-BPBPA-Ca.”

[2] = Hydroxyapatite (HA) affinity/binding assay of 2,2′-BPBPA and nano-Ca@2,2′-BPBPA; conditions: for Amount (%) bound to HA, Mean: HA 20 mg, duplicate
Protocol: (§2) Affinity assays experiment. Synthetic HA was employed to explore the affinity of nano-Ca@2,2′-BPBPA to the bone microenvironment. HA (20 mg) was exposed to nano-Ca@2,2′-BPBPA (5 mL, 0.5 mg/mL). The 2,2′-BPBPA (0.5 mg/mL) and HA (20 mg) were used as control groups. All experimental and control groups were left under constant stirring (150 rpm) for 0-12 d. Finally, the supernatant was collected, centrifuged (5 min, 1500 rpm), and the absorbance was measured at λmax=299 nm of maximum absorption (1, 2, 3, 4, 7, 8, 9, 10, 11, 12 d) to determine the amount (%) of 2,2′-BPBPA bound to HA after each period. The experiment was performed in duplicate. Once the experiment was completed, HA, HA-2,2′-BPBPA, and HA-nano-Ca@2,2′-BPBPA were characterized by SEM-EDS and PXRD.
The affinity of nano-Ca@22′-BPBPA to the bone was investigated using hydroxyapatite (HA). The HA is the main constituent of the bone microenvironment; this mineral represents an ideal target when treating bone-related diseases.^45 The binding assay of the nano-Ca@2,2′-BPBPA to HA was performed in PBS at 37° C., the HA as a received reagent was exposed to this nano-BPCCs for 0-12 d. The binding assay for 2,2′-BPBPA to HA was determined as a control experiment. The affinity of these materials to HA was assessed by measuring the absorbance of the supernatant at the lambda max (λmax=299 nm) to quantify the decrease in the 2,2′-BPBPA concentration over time. Binding curves (FIG. 163A) reveal that 2,2′-BPBPA and the nano-Ca@2,2′-BPBPA presented between 32 to 37% binding to HA after 2 d. The ligand reaches about 90% of binding to HA after 7 d while the nano-Ca@2,2′-BPBPA offers a 93% of binding to this mineral after 8 d.
as §2, with “Binding assay with hydroxyapatite (HA).” for “Affinity assays experiment.”, “Experiment” for “The experiment”, “PXRD. Table 35 present the percentage (%) of 2,2′-BPBPA and nano-Ca@2,2′-BPBPA bound to HA in PBS. FIGS. 200-201 show the binding curves for 2,2′-BPBPA and nano-Ca@2,2′-BPBPA.” for “PXRD.”

| SMILES | Percentage (%) of letrozole (LET) released, Mean ([1]; 1 h) | Percentage (%) of letrozole (LET) released, Mean ([1]; 3 h) | Percentage (%) of letrozole (LET) released, Mean ([1]; 6 h) | Percentage (%) of letrozole (LET) released, Mean ([1]; 24 h) | Percentage (%) of letrozole (LET) released, Mean ([1]; 48 h) | Percentage (%) of letrozole (LET) released, Mean ([1]; 72 h) | maximum binding to HA ([2]; 0.5 mg/mL) | time to reach maximum binding to HA ([2]; 0.5 mg/mL) | Amount (%) bound to HA, Mean ([2]; 0.5 mg/mL, PBS, 1 d) | Amount (%) bound to HA, Mean ([2]; 0.5 mg/mL, PBS, 2 d) | Amount (%) bound to HA, Mean ([2]; 0.5 mg/mL, PBS, 3 d) | Amount (%) bound to HA, Mean ([2]; 0.5 mg/mL, PBS, 4 d) | Amount (%) bound to HA, Mean ([2]; 0.5 mg/mL, PBS, 7 d) | Amount (%) bound to HA, Mean ([2]; 0.5 mg/mL, PBS, 8 d) | Amount (%) bound to HA, Mean ([2]; 0.5 mg/mL, PBS, 11 d) | Amount (%) bound to HA, Mean ([2]; 0.5 mg/mL, PBS, 12 d) | bound to HA ([2]; PBS, 37 °C, 7 d) |
| --- | --- | --- | --- | --- | --- | --- | --- | --- | --- | --- | --- | --- | --- | --- | --- | --- | --- |
| N#Cc1ccc(C(c2ccc(C#N)cc2)n2cncn2)cc1 [LET, letrozole] | 65% | 72% | 75% | 93% | 94% | 94% |  |  |  |  |  |  |  |  |  |  |  |
| O=P(O)(O)c1ccc(-c2ccc(P(=O)(O)O)cn2)nc1 [2,2′-BPBPA, 2,2′-bipyridine-5,5′-bisphosphonic acid] |  |  |  |  |  |  | 99% | 12 days | 18% | 37% | 66% | 71% | 90% | 99% | 99% | 99% | about 90% |

— patent US20250296942A1, “Phosphonate-Based Coordination Complexes and Methods of Preparation and Use Thereof” (University of Puerto Rico, priority 2021, published 2025)
